Values joined by “and” are separate entries in the source; they are usually repeats but may differ in a detail not shown here. Equal values may be shown once. Inconclusive results and toxic doses are left out. How the source made its calls: active means survival T/C of 150% or more; inactive means T/C below 125% in these data.
Tested on: P388 leukemia ip, CD2F1 mice, survival T/C
Assay: NCI In Vivo Anticancer Drug Screen. Data for tumor model P388 Leukemia (intraperitoneal) in CD2F1 (CDF1) mice
Details: endpoint: median survival time, higher = longer survival
Summary of the method: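 Mice carrying the transplanted tumor received test compound or vehicle. Survival was recorded in each group, and the value is the treated-group measurement divided by that of the vehicle-treated control group.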

[1] = dose: 50.0 mg/kg/injection, schedule: Q01DX009 (ip), vehicle: Klucel (hydroxypropylcellulose) (HPC)
[2] = dose: 100.0 mg/kg/injection, schedule: Q01DX009 (ip), vehicle: Klucel (hydroxypropylcellulose) (HPC)
[3] = dose: 100.0 mg/kg/injection, schedule: Q01DX009 (ip), vehicle: suspension in saline
[4] = dose: 200.0 mg/kg/injection, schedule: Q01DX009 (ip), vehicle: Klucel (hydroxypropylcellulose) (HPC)
[5] = dose: 200.0 mg/kg/injection, schedule: Q01DX009 (ip), vehicle: suspension in saline
[6] = dose: 400.0 mg/kg/injection, schedule: Q01DX009 (ip), vehicle: Klucel (hydroxypropylcellulose) (HPC)
[7] = dose: 60.0 mg/kg/injection, schedule: Q01DX005 (ip), vehicle: saline with Tween-80
[8] = dose: 120.0 mg/kg/injection, schedule: Q01DX005 (ip), vehicle: saline with Tween-80
[9] = dose: 25.0 mg/kg/injection, schedule: Q01DX009 (ip), vehicle: saline with Tween-80
[10] = dose: 50.0 mg/kg/injection, schedule: Q01DX009 (ip), vehicle: saline with Tween-80
[11] = dose: 100.0 mg/kg/injection, schedule: Q01DX009 (ip), vehicle: saline with Tween-80
[12] = dose: 50.0 mg/kg/injection, schedule: Q01DX005 (ip), vehicle: saline with Tween-80
[13] = dose: 100.0 mg/kg/injection, schedule: Q01DX005 (ip), vehicle: saline with Tween-80
[14] = dose: 200.0 mg/kg/injection, schedule: Q01DX005 (ip), vehicle: saline with Tween-80
[15] = dose: 200.0 mg/kg/injection, schedule: Q01DX009 (ip), vehicle: saline with Tween-80
[16] = dose: 25.0 mg/kg/injection, schedule: Q01DX005 (ip), vehicle: saline with Tween-80
[17] = dose: 240.0 mg/kg/injection, schedule: Q01DX005 (ip), vehicle: saline with Tween-80

Measured: T/C

c1ccc(-c2nc[nH]c2-c2ccccc2)cc1
inactive: [1] 96 % of control | [2] 97 % of control | [3] 101 % of control | [4] 98 % of control | [5] 96 % of control | [6] 97 % of control

CCN(CC)C(=O)c1c(C(=O)OC)c(C)n(NC(=O)c2cccc(C)c2)c1C
inactive: [7] 90 % of control | [8] 87 % of control

CB1NN=C(C)c2sccc21
inactive: [9] 102 % of control | [10] 103 % of control | [11] 86 % of control

Cc1cc(C)c(-c2c(Br)c(OC(=O)CO[C@@H]3C[C@H](C)CC[C@H]3C(C)C)c(-c3c(C)cc(C)c(Br)c3C)c(Br)c2OC(=O)CO[C@@H]2C[C@H](C)CC[C@H]2C(C)C)c(C)c1Br
inactive: [12] 107 % of control | [13] 100 % of control | [14] 88 % of control

C[N+](C)(Cc1cccc(Cl)c1)c1nnn[n-]1
inactive: dose: 100.0 mg/kg/injection, schedule: Q04DX003 (ip), vehicle: Klucel (hydroxypropylcellulose) (HPC) 98 % of control | dose: 200.0 mg/kg/injection, schedule: Q04DX003 (ip), vehicle: Klucel (hydroxypropylcellulose) (HPC) 101 % of control | dose: 400.0 mg/kg/injection, schedule: Q04DX003 (ip), vehicle: Klucel (hydroxypropylcellulose) (HPC) 107 % of control

NC(=NCCCC(NC(=O)c1ccccc1)C(=O)O)NC(=O)c1ccccc1 (configuration not stated)
inactive: [9] 108 % of control and 91 % of control | [10] 100 % of control and 90 % of control | [11] 93 % of control and 96 % of control | [15] 86 % of control and 97 % of control

S=C(Nc1ccc(I)cc1)SCc1ccco1
inactive: dose: 50.0 mg/kg/injection, schedule: Q01DX009 (ip), vehicle: suspension in saline 90 % of control | [3] 112 % of control | [5] 109 % of control

CCOC(=O)c1c[n+](C2OC(COC(=O)c3ccccc3)C(OC(=O)c3ccccc3)C2OC(=O)c2ccccc2)ccc1N (configuration not stated)
inactive: dose: 12.5 mg/kg/injection, schedule: Q01DX005 (ip), vehicle: saline with Tween-80 98 % of control | [16] 107 % of control | [12] 105 % of control and 92 % of control

O=C(Nc1ccc(Cl)cc1)SC1=NCC(=O)N1c1ccccc1
inactive: dose: 0.78 mg/kg/injection, schedule: Q01DX005 (ip), vehicle: saline with Tween-80 101 % of control | dose: 1.56 mg/kg/injection, schedule: Q01DX005 (ip), vehicle: saline with Tween-80 102 % of control | dose: 3.13 mg/kg/injection, schedule: Q01DX005 (ip), vehicle: saline with Tween-80 98 % of control and 94 % of control | dose: 6.25 mg/kg/injection, schedule: Q01DX005 (ip), vehicle: saline with Tween-80 94 % of control | [16] 89 % of control | [13] 88 % of control | [14] 92 % of control

O=Cc1c(-c2ccccc2)nc2sc(-c3ccc4c(c3)OCO4)nn12
inactive: [7] 102 % of control | [8] 99 % of control | [17] 99 % of control

O=C1C(CCl)=C(c2ccccc2)S(=O)(=O)c2ccccc21
inactive: [12] 109 % of control | [13] 114 % of control | [14] 114 % of control

O=C1NCC(c2ccccc2)N1 (configuration not stated)
inactive: [10] 119 % of control | [11] 100 % of control | [15] 106 % of control

OC(CO/N=C1/c2ccccc2CCC1Cc1ccccc1)CN1CCOCC1 (configuration not stated)
inactive: [7] 108 % of control | [8] 116 % of control | [17] 114 % of control

COC(=O)/C=C/CCOC1CCCCO1 (configuration not stated)
inactive: dose: 50.0 mg/kg/injection, schedule: Q01DX009 (ip), vehicle: other 108 % of control | dose: 100.0 mg/kg/injection, schedule: Q01DX009 (ip), vehicle: other 112 % of control | dose: 200.0 mg/kg/injection, schedule: Q01DX009 (ip), vehicle: other 107 % of control

CCCCCCCCSCc1ccc(Nc2ccc(Nc3ccc(CSCCCCCCCC)cc3)cc2)cc1
inactive: dose: 50.0 mg/kg/injection, schedule: Q01DX006 (ip), vehicle: other 102 % of control | dose: 50.0 mg/kg/injection, schedule: Q01DX009 (ip), vehicle: acetone 101 % of control | dose: 100.0 mg/kg/injection, schedule: Q01DX006 (ip), vehicle: other 116 % of control | dose: 100.0 mg/kg/injection, schedule: Q01DX009 (ip), vehicle: acetone 107 % of control | dose: 200.0 mg/kg/injection, schedule: Q01DX006 (ip), vehicle: other 117 % of control

S=C=[N][Sn]([N]=C=S)([c]1ccccc1)[c]1ccccc1.c1ccc2nc(-c3ccc4ccccc4n3)ccc2c1
inactive: dose: 1.87 mg/kg/injection, schedule: Q01DX005 (ip), vehicle: Klucel (hydroxypropylcellulose) (HPC) 97 % of control | dose: 3.75 mg/kg/injection, schedule: Q01DX005 (ip), vehicle: Klucel (hydroxypropylcellulose) (HPC) 109 % of control and 110 % of control

O=C(CC(O)(C(F)(F)F)C(F)(F)F)c1ccco1
inactive: dose: 33.0 mg/kg/injection, schedule: Q01DX009 (ip), vehicle: saline with Tween-80 110 % of control

Cc1ccc2c(=O)n(C)c(=O)n(C)c2n1
inactive: dose: 12.5 mg/kg/injection, schedule: Q01DX009 (ip), vehicle: saline with Tween-80 98 % of control | [9] 102 % of control | [10] 103 % of control | [11] 103 % of control

C=CB(OCCC)OCCC
inactive: dose: 50.0 mg/kg/injection, schedule: Q01DX009 (ip), vehicle: saline 92 % of control | dose: 100.0 mg/kg/injection, schedule: Q01DX009 (ip), vehicle: saline 92 % of control | dose: 200.0 mg/kg/injection, schedule: Q01DX009 (ip), vehicle: saline 88 % of control

CCCCCCCCCCCCCS
inactive: [10] 118 % of control | dose: 132.0 mg/kg/injection, schedule: Q04DX003 (ip), vehicle: saline with Tween-80 104 % of control

O=c1ccc2cc3ccoc3c(OCCOCCOCCOCCOc3c4occc4cc4ccc(=O)oc34)c2o1
inactive: [12] 92 % of control | [13] 91 % of control | [14] 91 % of control

C=C(C(C)=O)c1ccccc1
inactive: dose: 25.0 mg/kg/injection, schedule: Q01DX009 (ip), vehicle: Klucel (hydroxypropylcellulose) (HPC) 100 % of control | [1] 98 % of control | [2] 100 % of control | [4] 107 % of control | [6] 107 % of control

O=C(CNC(=O)Nc1ccc(Cl)c(Cl)c1)N/N=C/C=C/c1ccccc1
inactive: dose: 15.0 mg/kg/injection, schedule: Q01DX005 (ip), vehicle: saline with Tween-80 96 % of control | dose: 30.0 mg/kg/injection, schedule: Q01DX005 (ip), vehicle: saline with Tween-80 87 % of control

CCCCCCCCCCCCCCCc1ccc(OC)cc1
inactive: dose: 7.5 mg/kg/injection, schedule: Q01DX009 (ip), vehicle: saline with Tween-80 90 % of control | dose: 15.0 mg/kg/injection, schedule: Q01DX009 (ip), vehicle: saline with Tween-80 94 % of control | dose: 30.0 mg/kg/injection, schedule: Q01DX009 (ip), vehicle: saline with Tween-80 104 % of control

CC(=O)N1CN(C)N(C)C1
inactive: dose: 60.0 mg/kg/injection, schedule: Q01DX005 (ip), vehicle: Klucel (hydroxypropylcellulose) (HPC) 98 % of control | dose: 120.0 mg/kg/injection, schedule: Q01DX005 (ip), vehicle: Klucel (hydroxypropylcellulose) (HPC) 91 % of control | dose: 240.0 mg/kg/injection, schedule: Q01DX005 (ip), vehicle: Klucel (hydroxypropylcellulose) (HPC) 100 % of control
